Experimental findings from ChEMBL document CHEMBL3632499, “Synthesis and Antiproliferative Activity Evaluation of the Disulfide-Containing Cyclic Peptide Thiochondrilline C and Derivatives” (J Nat Prod, 2015) are described below.

In test [1] the test system is A549. The test is described as follows: Antiproliferative activity against human A549 cells assessed as growth inhibition at 10 uM. Type of test: functional. The conditions noted are these: read-out: GI.
The subject of test [2] is A549. The test is described as follows: Cytotoxicity against human A549 cells. Format: functional, cell-based.

Structures are written as SMILES. Positions of bridges follow the written chain, without caps; N, C: chain ends. Non-standard residues stand in square brackets, D forms with d. Residues, ends and D or L forms follow the SMILES beside them. Chains are numbered I, II in the order given. *: point of attachment. Quinaldoyl(3-OH) = O=C(c1nc2ccccc2cc1O)*; NMeC = CN[C@@H](CS)C(=O)O

For the compound `CN1C(=O)CNC(=O)[C@H](NC(=O)c2nc3ccccc3cc2O)CSSC[C@H]1C(=O)O`, the inhibition of growth at 10 µM in test [1] is under 30%.

As for `COC(=O)[C@H](C)N(C)C(=O)[C@@H]1CSSC[C@@H](NC(=O)c2nc3ccccc3cc2O)C(=O)NCC(=O)N1C`, the inhibition of growth at 10 µM in test [1] was under 30%.

The term EC50 denotes the concentration needed to bring the measured effect to its halfway point. Compound `COC(=O)[C@H](CSC)N(C)C(=O)[C@@H]1CSSC[C@@H](NC(=O)c2nc3ccccc3cc2O)C(=O)NCC(=O)N1C` ({Quinaldoyl(3-OH)}-[dC]G[NMeC][NMeC](Me)-OMe; disulfide 1-3) displayed an EC50 in test [2] of 2900 nM.

In test [2], `CSC[C@H]1C(=O)SC[C@@H](NC(=O)c2nc3ccccc3cc2O)C(=O)NCC(=O)N(C)[C@H]2CSSC[C@@H](C(=O)N1C)N(C)C(=O)CNC(=O)[C@H](NC(=O)c1nc3ccccc3cc1O)CSC(=O)[C@H](CSC)N(C)C2=O` [THIOCORALINE A] (I: {Quinaldoyl(3-OH)}-[dC]G[NMeC][NMeC](Me) / II: {Quinaldoyl(3-OH)}-[dC]G[NMeC][NMeC](Me); thioester I:1-II:C, I:C-II:1; disulfide I:3-II:3) displayed a half-maximal effective concentration (EC50) of 10 nM.
